Test results: patent US7820201B2, “System for manufacturing controlled release dosage forms, such as zero-order release profile dosage form manufactured by three-dimensional printing” (Massachusetts Institute of Technology, priority 2001, dated 2010)
Where two headings read alike, the source gives them in different places.

Conditions: for ko, best fit rate constant for equation 9: Co 280 mgAPI/cc, 3-D release, simulated intestinal fluid pH 7.4, 37° C.
Text: The concentration C0 refers to the amount of API per unit volume in the dosage form after compression.
Each of the API release curves in FIG. 16 was fit to Equation 9 by performing a least-squares fit between the empirical data and model. This was done to determine the relevance of the model, and to determine rate constants for the powder/API systems for later use. […] For this purpose, the rate constants in the two different directions were assumed to be equal.
The erosion rate constants are given in units of mg/hr cm^2 where mg is mg of API released into the dissolution fluid. R^2 is a statistical measure of correlation, with a value of 1 indicating perfect correlation.

linear erosion rate constant delta r/delta t (70% Lactose: 30% HPMC conventional tablets): 0.341 mm/hr
ko, best fit rate constant for equation 9 (Lactose:HPMC 60:40, 100 mg API): 6.092 mg/hr · cm^2
ko, best fit rate constant for equation 9 (Lactose:HPMC 70:30, 100 mg API): 9.540 mg/hr · cm^2
ko, best fit rate constant for equation 9 (Lactose:HPMC 80:20, 100 mg API): 22.238 mg/hr · cm^2
SMILES: O=C(O)Cc1ccccc1Nc1c(Cl)cccc1Cl [diclofenac sodium]
